Assay [1] concerns LLC-PK1 cells, a porcine kidney epithelial cell line. In words: in vitro wound healing, monolayer of kidney epithelial cells. In kind it is cell-based. Conditions: FIG. 1A. The method, then: Wound healing was measured using an art-established monolayer cell culture method (Nwomeh, et al. (1998) supra). Cells to be studied were plated in 48-well tissue culture plates at a cell density appropriate for obtaining confluent monolayers after one day in culture. Circular wounds were made in the center of the wells by placing a siliconized 200 μL tip into the well and lifting the cells from the plastic by applying suction. The successful creation of wounds was analysed using a phase contrast microscope. Cells were subsequently treated with control media or media containing the factors to be tested. The size of the wounds was immediately recorded for each well. […] After one or two days in culture (depending on the cells studied), the size of the wounds was measured again. Wound dimensions were evaluated with a Leica MZFL11 stereo microscope. Computer images of the wounds were recorded with imaging software and contours of each wound before and after treatment were traced manually. Collections of contours for all wounds were converted to BMP files and quantitated using the Band-Leader program. The results were expressed as % reduction of wounds taking as 100% the reduction obtained in control cell cultures. […] In these experiments, wound closure was being analysed, independent of the mechanism involved. […]

Assay [2] deals with primary human skin fibroblasts. In words: in vitro wound healing, monolayer of skin fibroblasts. It is filed as cell-based. The settings on record: FIG. 1B; for wound reduction: serum-free medium, two days. The method, then: (§1) Wound healing was measured using an art-established monolayer cell culture method (Nwomeh, et al. (1998) supra). Cells to be studied were plated in 48-well tissue culture plates at a cell density appropriate for obtaining confluent monolayers after one day in culture. Circular wounds were made in the center of the wells by placing a siliconized 200 μL tip into the well and lifting the cells from the plastic by applying suction. The successful creation of wounds was analysed using a phase contrast microscope. Cells were subsequently treated with control media or media containing the factors to be tested. The size of the wounds was immediately recorded for each well. The wounds were large enough to allow for a long-term incubation thereby improving the accuracy of the determinations. After one or two days in culture (depending on the cells studied), the size of the wounds was measured again. Wound dimensions were evaluated with a Leica MZFL11 stereo microscope. Computer images of the wounds were recorded with imaging software and contours of each wound before and after treatment were traced manually. Collections of contours for all wounds were converted to BMP files and quantitated using the Band-Leader program. The results were expressed as % reduction of wounds taking as 100% the reduction obtained in control cell cultures. No change corresponded to 0%, whereas complete closure corresponded to 100%. This system works well with close monitoring of cell densities. To prevent excess cell growth, the incubations were performed in serum-free medium supplemented with a single protein, transferrin (5 μg/mL). The absence of serum slowed down the healing process (one day in LLC-PK1 cells, two days in all other cultures), but reflected more accurately the situation likely to prevail in topical applications in vivo. Wound closure depends on the migration of cells at the sites of the wound and on cell proliferation. In these experiments, wound closure was being analysed, independent of the mechanism involved.
Cells analysed in the in vitro assay disclosed herein included monolayers of LLC-PK1 cells, a porcine kidney epithelial cell line used as an experimental system of wound healing for acute renal failure (Sponsel, et al. (1994) supra); monolayers of primary human skin fibroblasts; and monolayers of human skin keratinocytes. […] This made measurements of keratinocyte wound closure particularly difficult and time consuming. According, wound closure measurements of a cross created with two perpendicular cell lesions was particularly effective for analysing human skin keratinocytes (Sponsel, et al. (1994) supra).

For assay [3], the system named is human skin keratinocytes. As to the kind of experiment: in vitro wound healing, monolayer of skin keratinocytes. It is filed as cell-based. The settings on record: FIG. 1C. The method, then: as §1, with “The absence of serum slowed down the healing process (one day in LLC-PK1 cells, two days in all other cultures), but reflected more accurately the situation likely to prevail in topical applications in vivo. Wound closure depends on the migration of cells at the sites of the wound and on cell proliferation.” left out
Cells analysed in the in vitro assay disclosed herein included monolayers of LLC-PK1 cells, a porcine kidney epithelial cell line used as an experimental system of wound healing for acute renal failure (Sponsel, et al. (1994) supra); monolayers of primary human skin fibroblasts; and monolayers of human skin keratinocytes. […]

For the next assay, the system named is kidney epithelial cells. In words: cell proliferation, Alamar blue, kidney epithelial cells. In kind it is cell-based, porcine. The settings on record: two days, FIG. 2A. The procedure: (§2) The effects of IGF-API, API and C26 on cell proliferation were also evaluated using the art-established Alamar blue technique developed for hematopoietic cells or endothelial cells (DiFalco, et al. (1997) Biochem. J. 326:407-13; DiFalco & Congote (2002) Cytokine 18 (1):51-60; Sandoval, et al. (2002) supra). Five thousand cells per well were plated in 96-well plates and grown over night in complete cell culture medium. The cells were subsequently starved for one day in serum-free medium supplemented with 5 μg/mL bovine transferrin and 200 μg/mL fatty-acid free, tissue culture-tested, bovine serum albumin and incubated for two days in the presence of the API derivatives indicated. For experiments with the hepatoma cell line, Hep G2, only 3000 cells were plated per well.

Assay [4] has as its system human skin fibroblast cultures. In words: cell proliferation, Alamar blue, skin fibroblasts. It is filed as cell-based. Conditions: two days, FIG. 2B. The procedure:
as §2

The test system of assay [5] is human skin keratinocytes. In words: cell proliferation, Alamar blue, keratinocytes. It is filed as cell-based. The procedure: as §2
(§3) Cell proliferation with EGF and C26 was also analysed for keratinocytes and Hep G2 cells. The number of experiments using keratinocytes with EGF was five, and 10 to 11 with C26. The number of experiments using Hep G2 with EGF and C26 was five, except for 20 nM EGF (n=8, P<0.05, paired t-test) and for 20 μM C26 (n=21, p<0.001, paired t-test and Student-Newman-Keuls test). All other P values were according to the Student-Newman-Keul multiple comparisons test.

The test system of assay [6] is hepatoma cell line Hep G2. As to the kind of experiment: cell proliferation, Alamar blue, Hep G2. In kind it is cell-based. Conditions: Hep G2, 20 μM, FIG. 3B (n=21, p<0.001 for C26). The method, then:
as §2, §3

Take “API: alpha-1 proteinase inhibitor, also known as alpha-1-antitrypsin, the major physiological inhibitor of neutrophil elastase”: in assay [1], the “concentration at which effective/active in wound reduction” value is 0.16 nM. In assay [2], the “concentration with significant effect on wound reduction” value came out at 0.02 µM and the wound reduction entry was “significant, but lower than the effects obtained with IGF-API”. Besides, in the assay on human skin keratinocytes [3], the “concentration with effect on wound reduction” value was determined as 8 nM and the wound reduction entry is on record as “marginal, but significant effect”.

Take “C26: small peptide corresponding to the last 26 amino acids of API (SEQ ID NO:2) (PFVFLMIEQNTKSPLFMGKVVNPTQK)”: in assay [1], the “concentration at which effective/active in wound reduction” value was 32 nM. In addition, in assay [2], the “concentration with significant effect on wound reduction” value was 8 µM. Moreover, the wound reduction result in assay [2] was “significant, but lower than the effects obtained with IGF-API”; with human skin keratinocytes [3], “no significant effect”. Further, the cell proliferation result with kidney epithelial cells was “marginally stimulated cell proliferation”; in assay [4] it was “marginally stimulated cell proliferation”; in the assay with human skin keratinocytes [5] (two days, FIG. 2C), “marginally stimulated cell proliferation”; in assay [6], “significantly increased cell proliferation”. In addition, the “cell proliferation compared to EGF” value with human skin keratinocytes [5] (equivalent concentrations of EGF, FIG. 3A) was “higher than the effects of equivalent concentrations of epidermal growth factor”.

The record behind these values is patent US7399746B2, “Agents for wound healing” (McGill University, priority 2004, dated 2008).
